Where “and” joins values, the source holds several entries; their conditions need not be identical. Identical values can stand only once. Toxic doses and inconclusive results are not listed. Cut-off read from the data, not from the text of the source: active = T/C of 150% or more; inactive = T/C below 125%.
Test system: L1210 leukemia ip in BDF1 mice, survival T/C
Experiment: NCI In Vivo Anticancer Drug Screen. Data for tumor model L1210 Leukemia (intraperitoneal) in B6D2F1 (BDF1) mice
Conditions: endpoint: mean survival time, higher = longer survival
Method in brief: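 Value reflects the ratio of survival in compound-treated mice to survival in vehicle-treated controls, with both groups carrying the same transplanted tumor.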

[1] = dose: 100.0 mg/kg/injection, schedule: Q01DX001 (ip), vehicle: Klucel (hydroxypropylcellulose) (HPC)
[2] = dose: 200.0 mg/kg/injection, schedule: Q01DX001 (ip), vehicle: Klucel (hydroxypropylcellulose) (HPC)
[3] = dose: 400.0 mg/kg/injection, schedule: Q01DX001 (ip), vehicle: Klucel (hydroxypropylcellulose) (HPC)
[4] = dose: 100.0 mg/kg/injection, schedule: Q04DX003 (ip), vehicle: Klucel (hydroxypropylcellulose) (HPC)
[5] = dose: 100.0 mg/kg/injection, schedule: Q04DX002 (ip), vehicle: Klucel (hydroxypropylcellulose) (HPC)
[6] = dose: 200.0 mg/kg/injection, schedule: Q04DX002 (ip), vehicle: Klucel (hydroxypropylcellulose) (HPC)
[7] = dose: 400.0 mg/kg/injection, schedule: Q04DX002 (ip), vehicle: Klucel (hydroxypropylcellulose) (HPC)
[8] = dose: 100.0 mg/kg/injection, schedule: Q04DX002 (ip), vehicle: saline with Tween-80
[9] = dose: 200.0 mg/kg/injection, schedule: Q04DX002 (ip), vehicle: saline with Tween-80
[10] = dose: 200.0 mg/kg/injection, schedule: Q04DX003 (ip), vehicle: Klucel (hydroxypropylcellulose) (HPC)
[11] = dose: 400.0 mg/kg/injection, schedule: Q04DX003 (ip), vehicle: Klucel (hydroxypropylcellulose) (HPC)
[12] = dose: 100.0 mg/kg/injection, schedule: Q01DX009 (ip), vehicle: Klucel (hydroxypropylcellulose) (HPC)
[13] = dose: 100.0 mg/kg/injection, schedule: Q04DX003 (ip), vehicle: saline with Tween-80
[14] = dose: 200.0 mg/kg/injection, schedule: Q01DX009 (ip), vehicle: Klucel (hydroxypropylcellulose) (HPC)
[15] = dose: 200.0 mg/kg/injection, schedule: Q04DX003 (ip), vehicle: saline with Tween-80
[16] = dose: 400.0 mg/kg/injection, schedule: Q04DX003 (ip), vehicle: saline with Tween-80
[17] = dose: 100.0 mg/kg/injection, schedule: Q01DX001 (ip), vehicle: saline
[18] = dose: 200.0 mg/kg/injection, schedule: Q01DX001 (ip), vehicle: saline
[19] = dose: 400.0 mg/kg/injection, schedule: Q01DX001 (ip), vehicle: saline

Measured: T/C

CCOP(=O)(Nc1ccc2c(c1)Cc1cc(Br)ccc1-2)OCC
inactive: dose: 50.0 mg/kg/injection, schedule: Q01DX001 (ip), vehicle: carboxymethylcellulose (CMC) 105 % of control | dose: 100.0 mg/kg/injection, schedule: Q01DX001 (ip), vehicle: carboxymethylcellulose (CMC) 92 % of control | dose: 200.0 mg/kg/injection, schedule: Q01DX001 (ip), vehicle: carboxymethylcellulose (CMC) 105 % of control | dose: 400.0 mg/kg/injection, schedule: Q01DX001 (ip), vehicle: carboxymethylcellulose (CMC) 108 % of control

COc1ccc(/C=C2/N=C(C)OC2=O)cc1
inactive: [1] 92 % of control | [2] 98 % of control | [3] 102 % of control

N#CCc1c(Cl)ccc(Cl)c1Cl
inactive: dose: 12.0 mg/kg/injection, schedule: Q01DX009 (ip), vehicle: Klucel (hydroxypropylcellulose) (HPC) 97 % of control | dose: 25.0 mg/kg/injection, schedule: Q01DX009 (ip), vehicle: Klucel (hydroxypropylcellulose) (HPC) 100 % of control | dose: 25.0 mg/kg/injection, schedule: Q04DX003 (ip), vehicle: Klucel (hydroxypropylcellulose) (HPC) 97 % of control | dose: 50.0 mg/kg/injection, schedule: Q01DX009 (ip), vehicle: Klucel (hydroxypropylcellulose) (HPC) 94 % of control | dose: 50.0 mg/kg/injection, schedule: Q04DX003 (ip), vehicle: Klucel (hydroxypropylcellulose) (HPC) 98 % of control | [4] 101 % of control and 87 % of control

C/C=C1/CN(C)C2Cc3c([nH]c4ccccc34)C(c3cc4[nH]c5c(c4cc3OC)CCN3CC4CC(C(C)O)C3C5(C(=O)OC)C4)CC1C2C(=O)OC (stereo not given)
inactive: dose: 10.0 mg/kg/injection, schedule: Q01DX Z (ip), vehicle: other 97 % of control | dose: 20.0 mg/kg/injection, schedule: Q01DX Z (ip), vehicle: other 93 % of control | dose: 30.0 mg/kg/injection, schedule: Q01DX Z (ip), vehicle: other 90 % of control | dose: 30.0 mg/kg/injection, schedule: Q02DX Z (ip), vehicle: other 104 % of control | dose: 40.0 mg/kg/injection, schedule: Q01DX Z (ip), vehicle: other 95 % of control | dose: 40.0 mg/kg/injection, schedule: Q01DX Z (ip), vehicle: water 90 % of control | dose: 40.0 mg/kg/injection, schedule: Q02DX Z (ip), vehicle: other 103 % of control | dose: 60.0 mg/kg/injection, schedule: Q02DX Z (ip), vehicle: other 102 % of control | dose: 80.0 mg/kg/injection, schedule: Q01DX Z (ip), vehicle: water 94 % of control | dose: 80.0 mg/kg/injection, schedule: Q02DX Z (ip), vehicle: other 95 % of control

CNc1n[nH]c(=S)s1
inactive: [5] 101 % of control | [6] 104 % of control | [7] 104 % of control

O=C(CC(=O)c1cccc(NC(=O)CC(/C=C/C=C/CCCCCCCCCCCCCCCCC2CC(=O)OC2=O)C(=O)O)c1)Nc1ccccc1 (stereo not given)
inactive: dose: 75.0 mg/kg/injection, schedule: Q04DX003 (ip), vehicle: Klucel (hydroxypropylcellulose) (HPC) 94 % of control | [1] 90 % of control | dose: 150.0 mg/kg/injection, schedule: Q04DX003 (ip), vehicle: Klucel (hydroxypropylcellulose) (HPC) 95 % of control | [2] 90 % of control | dose: 300.0 mg/kg/injection, schedule: Q04DX003 (ip), vehicle: Klucel (hydroxypropylcellulose) (HPC) 103 % of control | [3] 87 % of control

O=C(OOC(=O)c1ccccc1)c1ccccc1
inactive: dose: 50.0 mg/kg/injection, schedule: Q01DX001 (ip), vehicle: other 96 % of control | dose: 100.0 mg/kg/injection, schedule: Q01DX001 (ip), vehicle: other 94 % of control | dose: 200.0 mg/kg/injection, schedule: Q01DX001 (ip), vehicle: other 102 % of control | dose: 400.0 mg/kg/injection, schedule: Q01DX001 (ip), vehicle: other 102 % of control

OCC1SCCS1
inactive: [8] 101 % of control | [9] 97 % of control | dose: 400.0 mg/kg/injection, schedule: Q04DX002 (ip), vehicle: saline with Tween-80 90 % of control

COC1C(COS(=O)(=O)c2ccc(C)cc2)OC2OC(C)(C)OC21 (stereo not given)
inactive: dose: 100.0 mg/kg/injection, schedule: Q04DX003 (ip), vehicle: other 92 % of control | dose: 200.0 mg/kg/injection, schedule: Q04DX003 (ip), vehicle: other 97 % of control | dose: 400.0 mg/kg/injection, schedule: Q04DX003 (ip), vehicle: other 101 % of control

CCCCNC(N)=S
inactive: [4] 98 % of control | [10] 104 % of control | [11] 102 % of control

Clc1cccc(Cl)c1Br
inactive: [12] 100 % of control | [13] 108 % of control | [14] 100 % of control | [15] 104 % of control | dose: 400.0 mg/kg/injection, schedule: Q01DX009 (ip), vehicle: Klucel (hydroxypropylcellulose) (HPC) 105 % of control | [16] 98 % of control

CC(=O)CCc1ccc(Cl)cc1
inactive: dose: 50.0 mg/kg/injection, schedule: Q01DX001 (ip), vehicle: saline 101 % of control | [17] 107 % of control | [5] 105 % of control | [18] 107 % of control | [6] 105 % of control | [19] 106 % of control | [7] 105 % of control

Fc1c(F)c(-c2c(F)c(F)c(S)c(F)c2F)c(F)c(F)c1S
inactive: [8] 88 % of control | [9] 98 % of control

O=[N+]([O-])c1cc2c(cc1Br)nc(Cl)c1cc(Br)ccc12
inactive: [12] 89 % of control | [4] 104 % of control | [14] 91 % of control | [10] 100 % of control | [11] 96 % of control

Cc1ccc(N2CCN(c3ccc([N+](=O)[O-])cc3)CC2)cc1Cl
inactive: [13] 100 % of control | [15] 100 % of control | [16] 98 % of control

CC1(CCCC2C(=O)N(c3ccccc3)N(c3ccccc3)C2=O)OCCO1
inactive: [4] 104 % of control | [10] 98 % of control | [11] 94 % of control

C1C2CC3CC1CC(C2)C31CO1 (stereo not given)
inactive: [5] 90 % of control | [6] 90 % of control | [7] 105 % of control

Cc1ccc(-c2cn(CCCOc3ccccc3)c(=O)nc2N)cc1
inactive: dose: 50.0 mg/kg/injection, schedule: Q01DX001 (ip), vehicle: Klucel (hydroxypropylcellulose) (HPC) 89 % of control | [1] 99 % of control | [2] 87 % of control

CN=C1N[N+]2=CCCCC2(C)S1 (stereo not given)
inactive: dose: 0.2 mg/kg/injection, schedule: Q03HX024 (ip), vehicle: saline 96 % of control | dose: 0.39 mg/kg/injection, schedule: Q03HX024 (ip), vehicle: saline 100 % of control | dose: 0.78 mg/kg/injection, schedule: Q03HX024 (ip), vehicle: saline 93 % of control | dose: 1.56 mg/kg/injection, schedule: Q03HX024 (ip), vehicle: saline 95 % of control | dose: 3.13 mg/kg/injection, schedule: Q03HX024 (ip), vehicle: saline 101 % of control

N#CSCc1ccccc1
inactive: dose: 75.0 mg/kg/injection, schedule: Q01DX001 (ip), vehicle: carboxymethylcellulose (CMC) 118 % of control | [4] 91 % of control | dose: 150.0 mg/kg/injection, schedule: Q01DX001 (ip), vehicle: carboxymethylcellulose (CMC) 98 % of control | [10] 103 % of control | [11] 94 % of control

Cc1cc2c(=O)[nH]c(N)nc2nc1C
inactive: dose: 100.0 mg/kg/injection, schedule: Q01DX Z (ip), vehicle: methylcellulose (MC) 95 % of control | dose: 200.0 mg/kg/injection, schedule: Q01DX Z (ip), vehicle: methylcellulose (MC) 94 % of control

CN1NC(=O)C2CCCC1O2 (stereo not given)
inactive: [17] 95 % of control | [18] 105 % of control | [19] 94 % of control

O=C(O)CSc1ccc(Cl)cc1
inactive: dose: 50.0 mg/kg/injection, schedule: Q01DX009 (ip), vehicle: saline with Tween-80 100 % of control | dose: 100.0 mg/kg/injection, schedule: Q01DX009 (ip), vehicle: saline with Tween-80 93 % of control | dose: 200.0 mg/kg/injection, schedule: Q01DX009 (ip), vehicle: saline with Tween-80 94 % of control

— PubChem BioAssay AID248 (DTP/NCI, 2004)
